Values quoted from earlier work, collected in US20050159809A1, “Implantable medical devices for treating or preventing restenosis” (Medtronic Vascular, Inc., priority 2004, published 2005).

Test system: balloon-injury induced neointimal thickening and macrophage accumulation
Details: four weeks after balloon de-endothelialization

CC(C)(Sc1cc(C(C)(C)C)c(O)c(C(C)(C)C)c1)Sc1cc(C(C)(C)C)c(O)c(C(C)(C)C)c1 [probucol, {[bis(3,5-di-tert-butyl-4-hydroxyphenyl)thio]propane}]
absolute neointima thickness (high cholesterol rabbit food plus 1% probucol vs cholesterol-only diet, P<0.05): reduced
macrophage content in the neointima (high cholesterol rabbit food plus 1% probucol vs high cholesterol feed without probucol, P<0.001): lower
